Type in all cases: cell-based
The test system of assay [1] is HTT mRNA. Briefly: Gene panel canonical junction qPCR assay, decrease in CJ mRNA, Table 3. The note with it: decrease in canonical junction (CJ) mRNA, gene panel qPCR, Table 3. An outline of the steps: (§1)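 Cells: A673 or K562; 24 h compound exposure, 37 °C, 5% CO2; 11-pt 3-fold series from 10 uM final; DMSO ≤0.25%. Lysate → cDNA → qPCR with junction-spanning primers/probe for CJ transcript. ΔCt vs housekeeper, ΔΔCt vs DMSO, 2^(−ΔΔCt), % response, 4PL → IC50.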

Assay [2] has as its system MYB mRNA. The assay is described as above. The note with it: decrease in canonical junction (CJ) mRNA, gene panel qPCR, Table 3. An outline of the steps:
as §1
For orientation: Real-time PCR tracks product formation cycle by cycle.

Assay [3] concerns MYB mRNA. The assay is described as follows: Splicing RT-qPCR assay (THP), Table 2A. The note with it: Table 2A (THP); for AC50: AJ mRNA increase, read-out: MYB AJ (increase in alternative junction mRNA, AC50); for IC50: CJ mRNA decrease, read-out: MYB CJ (decrease in canonical junction mRNA, IC50).
In assay [4] the test system is SH-SY5Y (human neuroblastoma) cells. Briefly: Cell viability, Cell Titer Glo 2.0 assay. The note with it: read-out: Viability SHSY5Y.3 GI50. Put shortly:
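CellTiter-Glo 2.0 luminescence read-out after 72 h compound exposure (37 °C, 5% CO2); medium-only wells as blank. DMSO 0.1% final.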
For orientation: ATP-based viability assays read luminescence as a measure of living cells.

Assay [5] concerns HTT mRNA. The assay is described as follows: Splicing RT-qPCR assay (THP), Table 2A. The note with it: Table 2A (THP); for AC50: AJ mRNA increase, read-out: HTT AJ (increase in alternative junction mRNA, AC50); for IC50: CJ mRNA decrease, read-out: HTT CJ (decrease in canonical junction mRNA, IC50).

Where a name gives a salt, the structure may show the parent alone.

Regarding `Cc1cn2cc(NC(=O)c3ccc(N4CCC(N[C@@H]5C[C@@H]5O)CC4)c4cn(C)nc34)cc(F)c2n1` [Compound 371, N-(8-fluoro-2-methyl-imidazo-[1,2-a]pyridin-6-yl)-4-(4-(((1R,2S)-2-hydroxy-cyclopropyl)-amino)piperidin-1-yl)-2-methyl-2H-indazole-7-carboxamide hydrochloride], the half-inhibitory concentration (IC50) in assay [1] is 1 to 10 µM; in assay [2], 0.1 to 1 µM; in assay [3], 0.1 to 1 µM; in assay [5], 1 to 10 µM. For the same compound, the AC50 in assay [3] was less than 0.1 µM; in assay [5], 1 to 10 µM. Also, the GI50 in assay [4] fell in the range of 1 to 10 µM.

With `CCNC1(C)CCN(c2cc(F)c(C(=O)Nc3cn4cc(C)nc(C)c4n3)c3nn(C)cc23)CC1` [Compound 375, N-(6,8-dimethylimidazo[1,2-a]pyrazin-2-yl)-4-[4-(ethylamino)-4-methyl-1-piperidyl]-6-fluoro-2-methyl-indazole-7-carboxamide], the IC50 in assay [1] is 1 to 10 µM; in assay [2] it was less than 0.1 µM; in assay [3], less than 0.1 µM; in assay [5], 1 to 10 µM. The values for the AC50 in assay [3] and in assay [5] were less than 0.1 µM and 1 to 10 µM, respectively. For the same compound, the GI50 in assay [4] lay in the range of 0.1 to 1 µM.

Turning to `C#CCCC1(CCN2CCN(c3ccc(C(=O)Nc4cc(F)c5nc(C)cn5c4)c4nn(C)cc34)CC2)N=N1` [Compound 376, 4-(4-(2-(3-(but-3-yn-1-yl)-3H-diazirin-3-yl)ethyl)piperazin-1-yl)-N-(8-fluoro-2-methyl-imidazo-[1,2-a]pyridin-6-yl)-2-methyl-2H-indazole-7-carboxamide bis(2,2,2-trifluoroacetate)], the IC50 fell in the range of 1 to 10 µM in assay [1], 0.1 to 1 µM in assay [2], 0.1 to 1 µM in assay [3] and 1 to 10 µM in assay [5]. In addition, the figures for the AC50 in assay [3] and in assay [5] were 0.1 to 1 µM and greater than 10 µM, respectively. In addition, the GI50 in assay [4] was 1 to 10 µM.

`Cc1cn2cc(NC(=O)c3c(F)cc(N4CCC(NC5CC5)CC4)c4cn(C)nc34)c(Oc3ccccc3)c(F)c2n1` [Compound 377, 4-[4-(cyclopropylamino)-1-piperidyl]-6-fluoro-N-(8-fluoro-2-methyl-7-phenoxyimidazo [1,2-a]pyridin-6-yl)-2-methyl-indazole-7-carboxamide]: the IC50 in assay [1], in assay [2], in assay [3] and in assay [5] was less than 0.1 µM each time. Besides, the AC50 in assay [3] and in assay [5] was less than 0.1 µM throughout. Further, the GI50 in assay [4] was less than 0.1 µM.

In the case of `Cc1cn2cc(NC(=O)c3ccc(N4CCC(NC5(CF)CC5)CC4)c4cn(C)nc34)cc(F)c2n1` [Compound 378, 4-[4-[[1-(fluoromethyl)cyclopropyl]amino]-1-piperidyl]-N-(8-fluoro-2-methyl-imidazo[1,2-a]pyridin-6-yl)-2-methyl-indazole-7-carboxamide], the 50% inhibitory concentration (IC50) in assay [1] was 1 to 10 µM; in assay [2], less than 0.1 µM; in assay [3] it was less than 0.1 µM; in assay [5], 1 to 10 µM. The concentration at half-maximal activity (AC50) in assay [3] was less than 0.1 µM; in assay [5], 1 to 10 µM. Besides, the GI50 in assay [4] lay in the range of 0.1 to 1 µM.

In the case of `CCNC1CCN(c2cc(F)c(C(=O)Nc3cn4cc(CO)nc(C)c4n3)c3nn(C)cc23)CC1` [Compound 379, 4-[4-(ethylamino)-1-piperidyl]-6-fluoro-N-[6-(hydroxymethyl)-8-methyl-imidazo[1,2-a]pyrazin-2-yl]-2-methyl-indazole-7-carboxamide], the IC50 is greater than 10 µM in assay [1], 1 to 10 µM in assay [2], 1 to 10 µM in assay [3] and greater than 10 µM in assay [5]. Besides, the AC50 in assay [3] is 1 to 10 µM; in assay [5], greater than 10 µM. Further, the 50% growth inhibitory concentration (GI50) in assay [4] is greater than 10 µM.

In general, IC50 refers to the concentration needed to halve the response being measured. For orientation: AC50 means the midpoint of the concentration-response curve, whichever way the signal moves. Usually GI50 stands for the concentration that inhibits growth by half.

The record behind these values is patent US20260285853A1, “COMPOUNDS AND METHODS FOR MODULATING SPLICING” (REMIX THERAPEUTICS INC., priority 2023, published 2026).
